Test results from patent publication EP0406297B1, “Medical use of neuropeptide Antagonist G” (IMPERIAL CANCER RESEARCH TECHNOLOGY LIMITED, priority 1988, dated 1996).
Residues, ends and D or L forms follow the SMILES beside them.

How the values were obtained:
[1] = tested on: small cell lung cancer (SCLC) cell line; assay: growth in vitro of small cell lung cancer cell lines; type: cell-based
Protocol: The ability of antagonists A, D and G to inhibit the growth in vitro of a small cell lung cancer (SCLC) cell line was tested. The cell lines used were • a) H69 and H128 from the ATCC in Maryland USA; • b) H209, H345 and H510A obtained from Dr. A. Gazdar at NCI, NIH, Maryland USA; • c) UCH25 from Dr. P. Beverley, University College, London, England.

Swiss 3T3 cells [2] = settings: for IC50: read-out: IC50 for inhibition of mitogenesis induced by bradykinin, 9.4 nM bradykinin, 1 µg/ml insulin
Swiss 3T3 cells [3] = settings: cited from earlier work
vasopressin receptor = settings: Swiss 3T3 cells; cited from earlier work
Swiss 3T3 cells [4] = assay: vasopressin-stimulated DNA synthesis in Swiss 3T3 cells; type: cell-based, murine
Swiss 3T3 cells [5] = assay: specificity: DNA synthesis with a variety of other mitogens in Swiss 3T3 cells; type: cell-based, murine
SCLC cell lines = assay: calcium mobilisation tests in SCLC cell lines; type: cell-based; settings: 20 µM
Protocol: These responses can be blocked by 20 µM antagonist D in 3 of 3 lines tested (H69, H345, H510A) and by 20 µM antagonist G in H510A.

Swiss 3T3 cells [6] = settings: earlier patent application and references 10, 11; cited from earlier work
Swiss 3T3 cells [7] = assay: GRP-induced DNA synthesis ([3H]thymidine incorporation) in quiescent Swiss 3T3 cells; type: cell-based, murine
bombesin receptor = settings: Swiss 3T3 cells; cited from earlier work

CC(C)C[C@H](NC(=O)[C@H](CC(C)C)NC(=O)[C@@H](Cc1c[nH]c2ccccc12)NC(=O)[C@H](Cc1ccccc1)NC(=O)[C@@H](Cc1c[nH]c2ccccc12)NC(=O)[C@H](CCC(N)=O)NC(=O)[C@H](CCC(N)=O)NC(=O)[C@@H]1CCCN1C(=O)[C@H](CCCCN)NC(=O)[C@H]1CCCN1C(=O)[C@H](N)CCCNC(=N)N)C(N)=O [antagonist A, D-Arg-D-Pro-Lys-Pro-Gln-Gln-D-Trp-Phe-D-Trp-Leu-Leu-NH2] (HELM PEPTIDE1{[dR].[dP].K.P.Q.Q.[dW].F.[dW].L.L.[am]}$$$$V2.0)
concentrations effective in inhibiting growth of SCLC ([1]; H69, H82, H128, H417 and UCH25): 50 to 150 µM | cell lines in which growth inhibition was found, of cell lines tested ([1]; SCLC cell lines): 5 of 5 | IC50 (Swiss 3T3 cells [2]): 90 µM | inhibition of vasopressin-stimulated DNA synthesis (Swiss 3T3 cells [3]): inhibit | inhibition of [3H]vasopressin binding (vasopressin receptor): inhibit

CC(C)C[C@H](NC(=O)[C@H](CC(C)C)NC(=O)[C@@H](Cc1c[nH]c2ccccc12)NC(=O)[C@H](Cc1ccccc1)NC(=O)[C@@H](Cc1c[nH]c2ccccc12)NC(=O)[C@H](CCC(N)=O)NC(=O)[C@@H](Cc1ccccc1)NC(=O)[C@@H]1CCCN1C(=O)[C@H](CCCCN)NC(=O)[C@@H]1CCCN1C(=O)[C@H](N)CCCNC(=N)N)C(N)=O [antagonist D, D-Arg-Pro-Lys-Pro-D-Phe-Gln-D-Trp-Phe-D-Trp-Leu-Leu-NH2] (HELM PEPTIDE1{[dR].P.K.P.[dF].Q.[dW].F.[dW].L.L.[am]}$$$$V2.0)
inhibition of vasopressin-induced DNA synthesis (Swiss 3T3 cells [4]; 20 µM antagonist D, LψLB at concentrations that strongly inhibited GRP-induced mitogenesis (1 µM)): potent inhibitor | inhibition of mitogenesis stimulated by EGF, PDGF, phorbol dibutyrate, cholera toxin and 8-bromo-cAMP (Swiss 3T3 cells [5]): Neither of them inhibited | effect against various bombesin-like peptides (DNA synthesis) (Swiss 3T3 cells [5]; GRP 3.6 nM, bombesin 1.2 nM, litorin 1.8 nM, 20 µM antagonist D or 1 µM LψLB): effective | inhibition of mitogenesis stimulated by VIP (Swiss 3T3 cells [5]; VIP 3.0 nM, 20 µM antagonist D or 1 µM LψLB): Neither antagonist D nor [Leu^13-ψ(CH2NH)Leu^14]bombesin inhibited | increase in potency against each mitogen relative to antagonist A (Swiss 3T3 cells [5]; mitogens bombesin/GRP, bradykinin, vasopressin): 5-10 fold | potency in inhibiting growth of SCLC relative to Antagonist A [1]: 5-10 fold | cell lines in which growth inhibition was found, of cell lines tested ([1]; SCLC cell lines): 6 of 6 | concentration that abolishes cell growth ([1]; SCLC cell lines): 40 to 50 µM | SCLC lines in which the Ca2+ responses were blocked, of lines tested (SCLC cell lines): 3 of 3 | transient elevation of intracellular [Ca2+] in response to bradykinin, GRP and vasopressin (SCLC cell lines; H69, H345, H510A): blocked | IC50 (Swiss 3T3 cells [2]): 8.3 µM | potency as bombesin antagonist relative to antagonist A (Swiss 3T3 cells [6]): 5-10 fold | inhibition of vasopressin-stimulated DNA synthesis (Swiss 3T3 cells [3]): inhibit | inhibition of [3H]vasopressin binding (vasopressin receptor): inhibit

CSCC[C@H](NC(=O)[C@H](CC(C)C)NC(=O)[C@@H](Cc1c[nH]c2ccccc12)NC(=O)[C@H](Cc1ccccc1)N(C)C(=O)[C@@H](Cc1c[nH]c2ccccc12)NC(=O)[C@@H](N)CCCNC(=N)N)C(N)=O [antagonist G, Arg.D-Trp.MePhe.D-Trp-Leu-Met-NH2] (HELM PEPTIDE1{R.[dW].[meF].[dW].L.M.[am]}$$$$V2.0)
potency as antagonist of growth induced by GRP, compared with Antagonist D (Swiss 3T3 cells [7]): less potent | potency as antagonist of vasopressin induced cell growth, compared with Antagonist D (Swiss 3T3 cells [4]; Swiss 3T3 cells): as potent as Antagonist D | inhibition of growth in SCLC cells, compared with antagonist D ([1]; H69, H209, H345 and H510A): equipotent with antagonist D | cell lines in which growth inhibition was found, of cell lines tested ([1]; SCLC cell lines): 4 of 4 | transient elevation of intracellular [Ca2+] in response to bradykinin, GRP and vasopressin (SCLC cell lines; H510A): blocked | potency as antagonist of growth induced by bradykinin, compared with Antagonist D (Swiss 3T3 cells [2]; Swiss 3T3 cells): less potent

Arg-Pro-Lys-Pro-Gln-Gln-Phe-Phe-Gly-Leu-Met-NH2 [substance P]
binding of [125I]GRP (bombesin receptor): neither inhibits
